Assay results reported in patent publication US5455230A, “Delta opioid receptor antagonists and their use as analgesic agents” (Aktiebolaget Astra, priority 1993, dated 1995).
Peptide text beside a SMILES is read from it.

Legend:
μ opioid receptor = biological target: T1, μ opioid receptor (Rattus norvegicus, UniProt P33535); assay: μ opioid receptor binding assay, displacement of [3H]DAMGO from rat brain membranes
T1 construct: from tissue; host or cells: rat brain (without cerebellum) membranes, Sprague-Dawley
T1 sequence (P33535 whole entry): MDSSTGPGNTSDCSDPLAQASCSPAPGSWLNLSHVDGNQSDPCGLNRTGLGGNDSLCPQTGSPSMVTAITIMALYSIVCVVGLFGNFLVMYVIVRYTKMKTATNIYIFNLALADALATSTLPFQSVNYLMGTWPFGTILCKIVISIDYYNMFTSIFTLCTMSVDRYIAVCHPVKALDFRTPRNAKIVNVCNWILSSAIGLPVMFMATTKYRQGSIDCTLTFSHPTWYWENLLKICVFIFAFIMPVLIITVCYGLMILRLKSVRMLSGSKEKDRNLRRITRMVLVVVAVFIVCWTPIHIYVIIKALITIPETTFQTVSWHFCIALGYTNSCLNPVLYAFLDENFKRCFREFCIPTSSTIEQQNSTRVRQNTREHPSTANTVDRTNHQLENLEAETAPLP
Text: (§1) In the case of κ-ligands guinea pig brain homogenates were used, since the relative proportion of κ-binding sites is higher in guinea pig brain than in rat brain. The experimental procedure being used in our laboratory represents a modified version of the binding assay described by Pastemak et al. (Mol. Pharmacol. 11,340-351, (1975)). Male Sprague-Dawley rats (300-350 g) from the Canadian Breeding Laboratories were decapitated and after removal of the cerebellum the brains were homogenized in 30 volumes of ice-cold standard buffer (50 mM Tris-HCl, pH 7.7). After centrifugation at 30,000×g for 30 min at 4° C. the membranes were reconstituted in the original volume of standard buffer and incubated for 30 min at 37° C. (to release bound endogenous ligands). […] The incubation was terminated by filtration through Whatman GF/B filters under vacuum at 4° C. Following two washings with 5 ml portions of ice-cold standard buffer the filters were transferred to scintillation vials and treated with 1 ml Protosol (New England Nuclear) for 30 min prior to the addition of 0.5 ml acetic acid and 10 ml Aquasol (New England Nuclear). After shaking for 30 min the vials were counted at an efficiency of 40-45%. All experiments were performed in duplicates and repeated at least three times. […] Values of half-maximal inhibition (IC50) of specific binding were obtained graphically from semilogarithmic plots.

δ opioid receptor = biological target: T2, δ opioid receptor (Rattus norvegicus, UniProt P33533); assay: δ opioid receptor binding assay, displacement of δ-selective radioligand from rat brain membranes; conditions: for Ki^μ /Ki^δ (δ-selectivity): ratio of μ and δ binding constants
T2 construct: from tissue; host or cells: rat brain (without cerebellum) membranes, Sprague-Dawley
T2 sequence (P33533 whole entry): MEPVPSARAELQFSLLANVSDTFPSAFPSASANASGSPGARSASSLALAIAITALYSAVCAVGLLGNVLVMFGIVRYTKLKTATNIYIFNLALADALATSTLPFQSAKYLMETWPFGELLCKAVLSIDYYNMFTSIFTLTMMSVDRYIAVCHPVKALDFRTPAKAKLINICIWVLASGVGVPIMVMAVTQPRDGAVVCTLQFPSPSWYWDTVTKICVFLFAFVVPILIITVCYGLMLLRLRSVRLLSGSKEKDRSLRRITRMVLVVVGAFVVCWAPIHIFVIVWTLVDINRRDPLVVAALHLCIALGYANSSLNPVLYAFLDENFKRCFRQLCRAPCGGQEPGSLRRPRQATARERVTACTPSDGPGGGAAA
Text: as §1

μ opioid receptors [1] = biological target: T3, μ opioid receptors (Cavia porcellus, UniProt P97266); assay: GPI assay: inhibition of electrically evoked contractions of the guinea pig ileum; conditions: read-out: IC50 (μ agonist potency) in the GPI assay
T3 sequence (P97266 whole entry, looked up): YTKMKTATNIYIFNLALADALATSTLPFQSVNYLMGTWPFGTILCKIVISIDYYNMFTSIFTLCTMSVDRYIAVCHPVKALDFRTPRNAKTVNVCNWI
Text: In the GPI assay the opioid effect is primarily mediated by μ opioid receptors, whereas in the MVD assay the inhibition of the contractions is mostly due to interaction with δ opioid receptors.

δ opioid receptors = biological target: T4, δ opioid receptors (Mus musculus, UniProt P32300); assay: MVD assay: antagonism of δ agonist inhibition of electrically evoked contractions of the mouse vas deferens; conditions: comparison with the patent's best compounds
T4 construct: electrically evoked contractions of the mouse vas deferens (MVD); from tissue; host or cells: isolated mouse vas deferens
T4 sequence (P32300 whole entry): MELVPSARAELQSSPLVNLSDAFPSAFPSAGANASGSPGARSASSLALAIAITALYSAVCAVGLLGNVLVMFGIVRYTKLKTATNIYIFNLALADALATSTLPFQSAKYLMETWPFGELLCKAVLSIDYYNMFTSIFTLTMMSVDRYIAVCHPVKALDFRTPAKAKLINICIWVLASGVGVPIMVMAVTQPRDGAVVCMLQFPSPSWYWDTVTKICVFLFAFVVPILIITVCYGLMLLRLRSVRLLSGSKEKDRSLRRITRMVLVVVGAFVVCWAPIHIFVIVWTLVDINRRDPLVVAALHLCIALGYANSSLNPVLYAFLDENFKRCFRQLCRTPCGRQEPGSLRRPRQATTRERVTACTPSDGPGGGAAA
Text: Biosassys based on inhibition of electrically evoked contractions of the mouse vas deferens (MVD) and of the guinea pig ileum (GPI). In the GPI assay the opioid effect is primarily mediated by μ opioid receptors, whereas in the MVD assay the inhibition of the contractions is mostly due to interaction with δ opioid receptors. Antagonist potencies in these assays are expressed as so-called Ke -values (H. W. Kosterlitz & A. J. Watt, Br. J. Pharmacol. 33, 266-276 (1968)).
The GPI and MVD bioassays were carried out as reported in P. W. Schiller et al Biochem. Biophys. Res. Commun 85, 1332-1338 (1978) and J. DiMaio et al, J. Med. Chem 25 1432-1438 (1982). A log dose-response curve was determind with [Leu^5 ]enkephalin as standard for each ileum and vas preparation, and IC50 values of the compounds being tested were normalized according to A. A Waterfield et al Eur. J. Pharmacod 58, 11-18 (1979). Ke values for the TIPP-related antagonists were determind from the ratio of IC50 values (DR) obtained in the presence and absence of a fixed antagonist concentration (a) (Ke =a/(DR-1) H. W. Kosterlitz & A. J. Watt, Br. J. Pharmacol. 33, 266-276 (1968). These determinations were made with the MVD assay, using three different δ -selective agonists ([Leu^5 ] enkephalin, DPDPE and [D-Ala^2 ]deltorphin I.

μ opioid receptors [2] = biological target: T3, μ opioid receptors; conditions: literature value, Portoghese J. Med. Chem. 34, 1757 (1991); cited from earlier work

Structure (SMILES) | Ki (μ opioid receptor) | Ki (δ opioid receptor) | Ki^μ /Ki^δ (δ-selectivity) (δ opioid receptor) | IC50 (μ opioid receptors [1]) | δ-selectivity compared with the most potent and selective δ antagonists of the patent (δ opioid receptor; comparison with the patent's best compounds) | antagonist potency in the MVD assay compared with the most potent and selective δ antagonists of the patent (δ opioid receptors) | Ke (antagonist properties) in the guinea pig ileum (GPI) assay (μ opioid receptors [2])
NC(=O)[C@H](Cc1ccccc1)NC(=O)[C@@H]1Cc2ccccc2CN1C(=O)[C@@H](N)Cc1ccc(O)cc1 [H--Tyr--Tic--Phe--NH2] (HELM PEPTIDE1{Y.[Tic].F.[am]}$$$$V2.0) | 624 ± 79 nM | 12 ± 1.3 nM | 52.0 | – | – | – | –
N[C@@H](Cc1ccc(O)cc1)C(=O)N1Cc2ccccc2C[C@H]1C(=O)N[C@@H](Cc1ccccc1)C(=O)O [H--Tyr--Tic--Phe--OH] (HELM PEPTIDE1{Y.[Tic].F}$$$$V2.0) | – | – | 141 | – | – | – | –
N[C@@H](Cc1ccc(O)cc1)C(=O)N1Cc2ccccc2C[C@H]1C(=O)N[C@@H](Cc1ccccc1)C(=O)N[C@@H](Cc1ccc([N+](=O)[O-])cc1)C(=O)O [H--Tyr--Tic--Phe--Phe(p-NO2)--OH] (HELM PEPTIDE1{Y.[Tic].F.[O=C(O)[C@H](Cc1ccc([N+](=O)[O-])cc1)N[*:1]]}$$$$V2.0) | 2890 ± 660 nM | 0.703 ± 0.099 nM | 4110 | – | – | – | –
NC(=O)[C@H](Cc1ccccc1)NC(=O)[C@H](Cc1ccccc1)NC(=O)[C@@H]1Cc2ccccc2CN1C(=O)[C@@H](N)Cc1ccc(O)cc1 [H--Tyr--Tic--Phe--Phe--NH2] (HELM PEPTIDE1{Y.[Tic].F.F.[am]}$$$$V2.0) | – | – | 26.3 | 1700 ± 220 nM | – | – | –
NC(=O)[C@H](Cc1c[nH]c2ccccc12)NC(=O)[C@H](Cc1ccccc1)NC(=O)[C@@H]1Cc2ccccc2CN1C(=O)[C@@H](N)Cc1ccc(O)cc1 [H--Tyr--Tic--Phe--Trp--NH2] (HELM PEPTIDE1{Y.[Tic].F.W.[am]}$$$$V2.0) | 312 ± 75 nM | 1.21 ± 0.19 nM | 258 | – | – | – | –
N[C@@H](Cc1ccc(O)cc1)C(=O)N1Cc2ccccc2C[C@H]1C(=O)N[C@@H](Cc1c[nH]c2ccccc12)C(=O)N[C@@H](Cc1ccc([N+](=O)[O-])cc1)C(=O)O [H--Tyr--Tic--Trp--Phe(p-NO2)--OH] (HELM PEPTIDE1{Y.[Tic].W.[O=C(O)[C@H](Cc1ccc([N+](=O)[O-])cc1)N[*:1]]}$$$$V2.0) | 1520 ± 42 nM | 0.33 ± 0.004 nM | 4610 | – | – | – | –
NC(=O)[C@H](Cc1ccccc1)NC(=O)[C@H](Cc1c[nH]c2ccccc12)NC(=O)[C@@H]1Cc2ccccc2CN1C(=O)[C@@H](N)Cc1ccc(O)cc1 [H--Tyr--Tic--Trp--Phe--NH2] (HELM PEPTIDE1{Y.[Tic].W.F.[am]}$$$$V2.0) | 176 ± 21 nM | 0.248 ± 0.009 nM | 709 | – | – | – | –
N[C@@H](Cc1ccc(O)cc1)C(=O)N1Cc2ccccc2C[C@H]1C(=O)N[C@@H](Cc1c[nH]c2ccccc12)C(=O)N[C@@H](Cc1ccccc1)C(=O)O [H--Tyr--Tic--Trp--Phe--OH] (HELM PEPTIDE1{Y.[Tic].W.F}$$$$V2.0) | 1790 ± 380 nM | 0.301 ± 0.042 nM | 5950 | – | – | – | –
C=CCN(CC=C)[C@@H](Cc1ccc(O)cc1)C(=O)NC(C)(C)C(=O)NC(C)(C)C(=O)N[C@@H](Cc1ccccc1)C(=O)N[C@@H](CC(C)C)C(=O)O [ICI 174864, N,N--diallyl--Tyr--Aib--Aib--Phe--Leu--OH, reference compound] (HELM PEPTIDE1{[C=CCN(CC=C)[C@@H](Cc1ccc(O)cc1)C(=O)[*:2]].[Aib].[Aib].F.L}$$$$V2.0) | – | – | – | – | 40 times less | 20 times less potent | –
Oc1ccc2c3c1O[C@H]1c4[nH]c5ccccc5c4C[C@@]4(O)[C@@H](C2)N(CC2CC2)CC[C@]314 [Naltrindole, naltrindole, reference compound] | – | 0.687 ± 0.1 nM | – | – | – | – | 29 nM
